Positions of bridges follow the written chain, without caps; N, C: chain ends. No end group written: not given here.
System: scopolamine-induced spatial short-term working memory deficits in mice
Experiment: Y-maze spontaneous alternation in the scopolamine mouse model of amnesia
Assay type: in vivo, Swiss mice
Procedure: Male Swiss mice, weighing 30-35 g, from JANVIER (Saint Berthevin, France), were housed in groups with access to food and water ad libitum, except during behavioral experiments. They were kept in a temperature and humidity-controlled animal facility on a 12 h/12 h light/dark cycle (lights off at 07:[…]). Mice were numbered by marking their tail with permanent markers. All animal procedures were conducted in strict adherence to the European Union directive of Sep. 22, 2010 (2010/63/UE). In each cage (n=6 per cage), treatment regimen was the same. Animals were tested in a random and blind manner.
Donepezil (DPZ) used as positive control was administered per os at a dose of 1 mg/kg once 1 h before the YM test.
Scopolamine was administered at a dose of 0.5 mg/kg by subcutaneous injection 30 minutes before the YM session.
After administration of compounds at different timepoints all animals were tested for spontaneous alternation performance in the YM, an index of spatial working memory. The YM was designed according to Itoh and collaborators (1993) and Hiramatsu and Inoue (1999) and is made of grey polyvinylchloride. Each arm is 40-cm long, 13-cm high, 3-cm wide at the bottom, 10-cm wide at the top, and converging at an equal angle. Each mouse was placed at the end of one arm and allowed to move freely through the maze during an 8-min session. The series of arm entries, including possible returns into the same arm, were checked visually. An alternation was defined as entries into all three arms on consecutive occasions. The number of maximum alternations is therefore the total number of arm entries minus two and the percentage of alternation was calculated as (actual alternations/maximum alternations)×100. Parameters included the percentage of alternation, called memory index, and total number of arm entries, called exploration index (Maurice et al., 1996, 1988; Meunier et al., 2006; Villard et al., 2009, 2011).
Animals showing an extreme behavior (alternation percentage <20% or >90% or number of arm entries <10) would have been discarded from the calculation. No animal was discarded accordingly.

W-S-G-W-S-S-C-S-R-S-C-G [NX218] (WSGWSSCSRSCG; disulfide 7-11 (inferred))
effect on scopolamine-induced spatial short-term working memory impairments (Y-maze) (2.5 mg/kg i.p. (lowest tested dose) 24 h before the test): efficacy was already demonstrated
effect on scopolamine-induced spatial short-term working memory impairments (Y-maze) (5 mg/kg i.p. 2 h before the test, data not shown): only partial
effect on scopolamine-induced spatial short-term working memory impairments (Y-maze) (5 mg/kg i.p. 24 h before the test, data not shown): complete reversal effect
effect on scopolamine-induced spatial short-term working memory impairments (Y-maze) (5 mg/kg i.p. 48 h before the test, data not shown): partially blocked
effect on scopolamine-induced spatial short-term working memory impairments (Y-maze) (10 mg/kg i.p. 48 h before the test, data not shown): completely counteracted
effect on scopolamine-induced spatial short-term working memory impairments (Y-maze) (15 mg/kg i.p. once 48 h before the test, data not shown): partially blocked
dose with maximum effect on scopolamine-induced memory impairments (Y-maze) (i.p. once 24 h before the test, bell-shaped dose-response curve): 10 mg/kg
spontaneous alternance in Y-maze (scopolamine + 10 mg/kg i.p. 24 h before test, scopolamine alone 45, control 70, n=6, 10 mg/kg): 71%
